Measurements from US20260159512A1, “BCAT2 INHIBITORS” (AGIOS PHARMACEUTICALS, INC., priority 2021, published 2026).
pIC50: −log10 of the molar value.

Tests used:
Settings in all cases: average where tested multiple times
BCAT2 [1] = target: T1, BCAT2 (Homo sapiens, UniProt O15382); assay: BCAT2 in vitro enzyme inhibition assay (resazurin/diaphorase-coupled fluorescence); assay type: biochemical
T1 sequence (O15382 28-392): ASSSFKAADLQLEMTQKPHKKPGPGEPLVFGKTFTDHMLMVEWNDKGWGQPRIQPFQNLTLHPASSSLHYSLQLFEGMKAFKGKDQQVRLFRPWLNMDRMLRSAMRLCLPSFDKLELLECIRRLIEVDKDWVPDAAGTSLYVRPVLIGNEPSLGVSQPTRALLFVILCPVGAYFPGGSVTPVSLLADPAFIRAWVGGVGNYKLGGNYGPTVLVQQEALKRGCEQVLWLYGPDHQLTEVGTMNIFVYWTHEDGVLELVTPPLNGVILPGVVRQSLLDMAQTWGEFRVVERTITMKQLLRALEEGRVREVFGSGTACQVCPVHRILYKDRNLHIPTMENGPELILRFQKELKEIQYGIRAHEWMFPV
Procedure, shortened: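 Coupled fluorescence readout: glutamate formed from L-leucine/α-ketoglutarate transamination drives GDH/NAD/diaphorase reduction of resazurin (Ex 540/Em 590). Human BCAT2 was first exposed 1 h at room temperature to compound, top final 100 μM in 3-fold, 10-point series; substrate reaction ran 1 h before SDS quench, in technical duplicate with DMSO max and enzyme-free min controls.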

hBCAT1 = target: T2, hBCAT1 (Homo sapiens, UniProt P54687); assay: BCAT1 in vitro enzyme inhibition assay (resazurin/diaphorase-coupled fluorescence); assay type: biochemical
T2 sequence (P54687 1-386): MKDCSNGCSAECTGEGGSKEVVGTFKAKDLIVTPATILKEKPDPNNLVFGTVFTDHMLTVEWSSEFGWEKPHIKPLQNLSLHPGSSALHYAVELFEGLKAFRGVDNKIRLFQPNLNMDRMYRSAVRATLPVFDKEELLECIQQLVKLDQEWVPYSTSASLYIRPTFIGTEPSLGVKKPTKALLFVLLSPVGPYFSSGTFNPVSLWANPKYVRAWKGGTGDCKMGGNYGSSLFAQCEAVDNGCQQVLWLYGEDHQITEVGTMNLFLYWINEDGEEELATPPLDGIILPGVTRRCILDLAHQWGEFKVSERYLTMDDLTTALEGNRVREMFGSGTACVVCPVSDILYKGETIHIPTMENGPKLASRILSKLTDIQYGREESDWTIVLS
Procedure, shortened: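 Ten-point, 3-fold compound series (top final 100 μM, delivered 1:50 from 50× DMSO stocks) tested against hBCAT1. Inhibition detected via diaphorase-coupled resazurin fluorescence, duplicate wells, with values from repeated runs averaged.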

BCAT2 [2] = target: T1, BCAT2; assay: BCAT2 in vitro cell inhibition using engineered A549 cells (KMV cell assay, 13C6-KMV by LC-MS/MS); assay type: cell-based; set-up: The result was an engineered A549 cell line that expressed endogenous BCAT2; endogenous in cells; host or cells: A549 cells with MUT and BCAT1 knocked out by CRISPR/CAS9

pIC50 (BCAT2 [1]) | pIC50 (hBCAT1) | pIC50 (BCAT2 [2]) | Compound
≥ 7.00 | > 6.30 | ≥ 7.00 | O=C(N[C@H]1C[C@H](O)C[C@@H](n2c(-c3ccccc3F)nc3cnc(F)cc32)C1)c1ncc(Cl)s1 [Example 276, 5-chloro-N-((1R,3S,5S)-3-(6-fluoro-2-(2-fluorophenyl)-1H-imidazo[4,5-c]pyridin-1-yl)-5-hydroxycyclohexyl)thiazole-2-carboxamide]
≥ 7.00 | > 6.30 | ≥ 7.00 | CC(=O)N1C[C@H](NC(=O)c2ncc(C(F)F)s2)C[C@H](n2c(-c3ccccc3F)nc3cnc(-c4ncco4)cc32)C1 [Example 128, N-((3R,5S)-1-acetyl-5-(2-(2-fluorophenyl)-6-(oxazol-2-yl)-1H-imidazo[4,5-c]pyridin-1-yl)piperidin-3-yl)-5-(difluoromethyl)thiazole-2-carboxamide]
≥ 7.00 | 5.30 to 6.00 | 6.30 to 7.00 | CO[C@H]1C[C@H](NC(=O)c2ncc(Cl)s2)C[C@H](n2c(CC(C)(C)C)nc3cnc(-c4ccccn4)cc32)C1 (single isomer, unassigned) [Example 442]
≥ 7.00 | > 6.30 | ≥ 7.00 | O=C(NC1CCCCC(n2c(-c3ccccc3F)nc3cnc(-c4nc[nH]n4)cc32)C1O)c1ncc(Cl)s1 (stereo not drawn) [Example 402, 5-chloro-N-((2-(2-fluorophenyl)-6-(1H-1,2,4-triazol-3-yl)-1H-imidazo[4,5-c]pyridin-1-yl)-2-hydroxycycloheptyl)thiazole-2-carboxamide]
≥ 7.00 | > 6.30 | ≥ 7.00 | CC(C)Cc1nc2cnc(-c3nc(CO)cs3)cc2n1[C@@H]1CCC[C@H](NC(=O)c2ncc(Cl)s2)C1 [Example 330, 5-chloro-N-((1S,3R)-3-(6-(4-(hydroxymethyl)thiazol-2-yl)-2-isobutyl-1H-imidazo[4,5-c]pyridin-1-yl)cyclohexyl)thiazole-2-carboxamide]
≥ 7.00 | > 6.30 | ≥ 7.00 | O=C(N[C@H]1CCC[C@@H](n2c(-c3ccccn3)nc3cnc(-c4nc[nH]n4)cc32)C1)c1ncc(Cl)s1 [Example 184, 5-chloro-N-((1S,3R)-3-(2-(pyridin-2-yl)-6-(1H-1,2,4-triazol-3-yl)-1H-imidazo[4,5-c]pyridin-1-yl)cyclohexyl)thiazole-2-carboxamide]
≥ 7.00 | 5.30 to 6.00 | 6.30 to 7.00 | CC(=O)N1CC(NC(=O)c2ccc(Br)s2)CC(n2c(-c3ccccn3)nc3ccc(-c4ncon4)cc32)C1 (stereo not drawn) [Example 286, N-(5-(6-(1,2,4-oxadiazol-3-yl)-2-(pyridin-2-yl)-1H-benzo[d]imidazol-1-yl)-1-acetylpiperidin-3-yl)-5-bromothiophene-2-carboxamide]
≥ 7.00 | 5.30 to 6.00 | 6.00 to 6.30 | O=C(N[C@H]1CCC[C@@H](n2c(-c3ccccn3)nc3cnc(-n4ccnn4)cc32)C1)c1ccc(Br)s1 [Example 10, 5-bromo-N-((1S,3R)-3-(2-(pyridin-2-yl)-6-(1H-1,2,3-triazol-1-yl)-1H-imidazo[4,5-c]pyridin-1-yl)cyclohexyl)thiophene-2-carboxamide]
6.30 to 7.00 | 6.00 to 6.30 | 6.00 to 6.30 | N#Cc1ccc(F)c(-c2nc3cnc(-c4nc[nH]n4)cc3n2[C@@H]2CCC[C@H](NC(=O)c3ccc(Cl)s3)C2)c1 [Example 345, 5-chloro-N-((1S,3R)-3-(2-(5-cyano-2-fluorophenyl)-6-(1H-1,2,4-triazol-3-yl)-1H-imidazo[4,5-c]pyridin-1-yl)cyclohexyl)thiophene-2-carboxamide]
≥ 7.00 | > 6.30 | 6.30 to 7.00 | CC(=O)N1CC(NC(=O)c2ccc(Cl)s2)CC(n2c(CC(C)C)nc3cnc(-n4nccn4)cc32)C1 (stereo not drawn) [Example 131, N-(1-acetyl-5-(2-isobutyl-6-(2H-1,2,3-triazol-2-yl)-1H-imidazo[4,5-c]pyridin-1-yl)piperidin-3-yl)-5-chlorothiophene-2-carboxamide]
6.30 to 7.00 | < 5.30 | < 6.00 | CC(C)Cc1nc2cnc(-n3cc(CO)nn3)cc2n1[C@@H]1CCC[C@H](NC(=O)c2ncc(Cl)s2)C1 [Example 346, 5-chloro-N-((1S,3R)-3-(6-(4-(hydroxymethyl)-1H-1,2,3-triazol-1-yl)-2-isobutyl-1H-imidazo[4,5-c]pyridin-1-yl)cyclohexyl)thiazole-2-carboxamide]
≥ 7.00 | > 6.30 | < 6.00 | Nc1cc2c(cn1)nc(-c1ccccc1F)n2[C@@H]1C[C@@H](O)C[C@H](NC(=O)c2ncc(Cl)s2)C1 [Example 270, N-((1R,3S,5S)-3-(6-amino-2-(2-fluorophenyl)-1H-imidazo[4,5-c]pyridin-1-yl)-5-hydroxycyclohexyl)-5-chlorothiazole-2-carboxamide]
≥ 7.00 | 6.00 to 6.30 | 6.30 to 7.00 | CC(C)(F)Cc1nc2cnc(-c3ccccn3)cc2n1[C@@H]1CCC[C@H](NC(=O)c2ncc(Cl)s2)C1 [Example 302, 5-chloro-N-((1S,3R)-3-(2-(2-fluoro-2-methylpropyl)-6-(pyridin-2-yl)-1H-imidazo[4,5-c]pyridin-1-yl)cyclohexyl)thiazole-2-carboxamide]
≥ 7.00 | > 6.30 | 6.30 to 7.00 | CC(C)Cc1nc2cnc(-c3cccc(F)n3)cc2n1[C@@H]1CCC[C@H](NC(=O)c2ncc(Cl)s2)[C@H]1O [Example 209, 5-chloro-N-((1S,2R,3R)-3-(6-(6-fluoropyridin-2-yl)-2-isobutyl-1H-imidazo[4,5-c]pyridin-1-yl)-2-hydroxycyclohexyl)thiazole-2-carboxamide]
≥ 7.00 | 5.30 to 6.00 | 6.30 to 7.00 | O=C(N[C@@H]1CCCC[C@H](n2c(-c3ccccc3F)nc3cnc(-c4nnc[nH]4)cc32)C1)c1ncc(Cl)s1 (single isomer, unassigned) [Example 87, 5-chloro-N-(3-(2-(2-fluorophenyl)-6-(4H-1,2,4-triazol-3-yl)-1H-imidazo[4,5-c]pyridin-1-yl)cycloheptyl)thiazole-2-carboxamide]
≥ 7.00 | > 6.30 | ≥ 7.00 | CC(=O)N1CC(NC(=O)c2ccc(Br)s2)CC(n2c(-c3ccccc3F)nc3cnc(-c4ncco4)cc32)C1 (stereo not drawn) [Example 118, N-(1-acetyl-5-(2-(2-fluorophenyl)-6-(oxazol-2-yl)-1H-imidazo[4,5-c]pyridin-1-yl)piperidin-3-yl)-5-bromothiophene-2-carboxamide]
≥ 7.00 | > 6.30 | ≥ 7.00 | Cc1cnc(-c2cc3c(cn2)nc(-c2ccccn2)n3[C@@H]2CCC[C@H](NC(=O)c3ccc(Br)s3)C2)o1 [Example 18, 5-bromo-N-((1S,3R)-3-(6-(5-methyloxazol-2-yl)-2-(pyridin-2-yl)-1H-imidazo[4,5-c]pyridin-1-yl)cyclohexyl)thiophene-2-carboxamide]
≥ 7.00 | > 6.30 | ≥ 7.00 | O=C(N[C@H]1CCC[C@@H](n2c(-c3ccccc3F)nc3cnc(-c4ccccn4)cc32)C1)c1ncc(Cl)s1 [Example 104, 5-chloro-N-((1S,3R)-3-(2-(2-fluorophenyl)-6-(pyridin-2-yl)-1H-imidazo[4,5-c]pyridin-1-yl)cyclohexyl)thiazole-2-carboxamide]
6.30 to 7.00 | < 5.30 | < 6.00 | Cn1ccc(-c2nc3cnc(-n4nccn4)cc3n2[C@@H]2CCC[C@H](NC(=O)c3ncc(C(F)F)s3)C2)n1 [Example 41, 5-(difluoromethyl)-N-((1S,3R)-3-(2-(1-methyl-1H-pyrazol-3-yl)-6-(2H-1,2,3-triazol-2-yl)-1H-imidazo[4,5-c]pyridin-1-yl)cyclohexyl)thiazole-2-carboxamide]
